According to patent publication US6358885B1, “Substituted phenylheterocyclic herbicides” (Mississippi State University, priority 1992, dated 2002):

Legend:
Assay in all cases: Test G preemergence/postemergence greenhouse plant response rating 0 to 100
itchgrass = assay type: in vivo, Rottboellia exaltata; conditions: 0 to 100 scale
Procedure, shortened: (§1)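 Greenhouse pots, one species each; non-phytotoxic solvent vehicle. Read-out: visual injury vs untreated, 13–21 DAT. Dash denotes no result.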

johnsongrass = assay type: in vivo, Sorghum halepense; conditions: 0 to 100 scale
Procedure, shortened: as §1

large crabgrass = assay type: in vivo, Digitaria sanguinalis; conditions: 0 to 100 scale
Procedure, shortened: as §1

smooth crabgrass = assay type: in vivo, Digitaria ischaemum; conditions: 0 to 100 scale
Procedure, shortened: as §1

yellow nutsedge = assay type: in vivo, Cyperus esculentus; conditions: Rate 125 g/ha, 0 to 100 scale
Procedure, shortened: as §1

guineagrass = assay type: in vivo, Panicum maximum; conditions: 0 to 100 scale
Procedure, shortened: as §1

pitted morningglory = assay type: in vivo, Ipomoea lacunosa; conditions: 0 to 100 scale
Procedure, shortened: as §1

goosegrass = assay type: in vivo, Eleusine indica; conditions: 0 to 100 scale
Procedure, shortened: as §1

common purslane = assay type: in vivo, Portulaca oleracea; conditions: 0 to 100 scale
Procedure, shortened: as §1

bermudagrass = assay type: in vivo, Cynodon dactylon; conditions: 0 to 100 scale
Procedure, shortened: as §1

dallisgrass = assay type: in vivo, Paspalum dilatatum; conditions: 0 to 100 scale
Procedure, shortened: as §1

common ragweed = assay type: in vivo, Ambrosia elatior; conditions: 0 to 100 scale
Procedure, shortened: as §1

purple nutsedge = assay type: in vivo, Cyperus rotundus; conditions: Rate 125 g/ha, 0 to 100 scale
Procedure, shortened: as §1

annual bluegrass = assay type: in vivo, Poa annua; conditions: 0 to 100 scale
Procedure, shortened: as §1

alfalfa = assay type: in vivo, Medicago ativa; conditions: 0 to 100 scale
Procedure, shortened: as §1

sandbur = assay type: in vivo, Cenchrus echinatus; conditions: 0 to 100 scale
Procedure, shortened: as §1

peanut = assay type: in vivo, Arachis hypoagaea; conditions: 0 to 100 scale
Procedure, shortened: as §1

broadleaf signalgrass = assay type: in vivo, Brachiaria plantaginea; conditions: 0 to 100 scale
Procedure, shortened: as §1

Structure (SMILES): COc1cc(-c2nn3c(c2Cl)CCCC3)c(F)cc1Cl [Compound 29]
- Plant response rating, Itchgrass (itchgrass; POSTEMERGENCE, Rate 125 g/ha): 0
- Plant response rating, Itchgrass (itchgrass; POSTEMERGENCE, Rate 250 g/ha): 0
- Plant response rating, Itchgrass (itchgrass; PREEMERGENCE, Rate 125 g/ha): 100
- Plant response rating, Itchgrass (itchgrass; PREEMERGENCE, Rate 250 g/ha): 40
- Plant response rating, Johnsongrass (johnsongrass; POSTEMERGENCE, Rate 125 g/ha): 0
- Plant response rating, Johnsongrass (johnsongrass; POSTEMERGENCE, Rate 250 g/ha): 0
- Plant response rating, Johnsongrass (johnsongrass; PREEMERGENCE, Rate 125 g/ha): 0
- Plant response rating, Johnsongrass (johnsongrass; PREEMERGENCE, Rate 250 g/ha): 0
- Plant response rating, Large Crabgrass (large crabgrass; POSTEMERGENCE, Rate 125 g/ha): 0
- Plant response rating, Large Crabgrass (large crabgrass; POSTEMERGENCE, Rate 250 g/ha): 0
- Plant response rating, Large Crabgrass (large crabgrass; PREEMERGENCE, Rate 125 g/ha): 80
- Plant response rating, Large Crabgrass (large crabgrass; PREEMERGENCE, Rate 250 g/ha): 100
- Plant response rating, Smooth Crabgras (smooth crabgrass; POSTEMERGENCE, Rate 125 g/ha): 0
- Plant response rating, Smooth Crabgras (smooth crabgrass; POSTEMERGENCE, Rate 250 g/ha): 0
- Plant response rating, Smooth Crabgras (smooth crabgrass; PREEMERGENCE, Rate 125 g/ha): 0
- Plant response rating, Smooth Crabgras (smooth crabgrass; PREEMERGENCE, Rate 250 g/ha): 100
- Plant response rating, Yellow Nutsedge (yellow nutsedge; POSTEMERGENCE): 0
- Plant response rating, Yellow Nutsedge (yellow nutsedge; PREEMERGENCE): 0
- Plant response rating, Guineagrass (guineagrass; POSTEMERGENCE, Rate 125 g/ha): 0
- Plant response rating, Guineagrass (guineagrass; POSTEMERGENCE, Rate 250 g/ha): 0
- Plant response rating, Guineagrass (guineagrass; PREEMERGENCE, Rate 125 g/ha): 0
- Plant response rating, Guineagrass (guineagrass; PREEMERGENCE, Rate 250 g/ha): 100
- Plant response rating, Pit Morninglory (pitted morningglory; POSTEMERGENCE, Rate 125 g/ha): 0
- Plant response rating, Pit Morninglory (pitted morningglory; POSTEMERGENCE, Rate 250 g/ha): 70
- Plant response rating, Pit Morninglory (pitted morningglory; PREEMERGENCE, Rate 125 g/ha): 0
- Plant response rating, Pit Morninglory (pitted morningglory; PREEMERGENCE, Rate 250 g/ha): 30
- Plant response rating, Goosegrass (goosegrass; POSTEMERGENCE, Rate 125 g/ha): 0
- Plant response rating, Goosegrass (goosegrass; POSTEMERGENCE, Rate 250 g/ha): 0
- Plant response rating, Goosegrass (goosegrass; PREEMERGENCE, Rate 125 g/ha): 90
- Plant response rating, Goosegrass (goosegrass; PREEMERGENCE, Rate 250 g/ha): 100
- Plant response rating, Cmn Purslane (common purslane; POSTEMERGENCE, Rate 125 g/ha): 90
- Plant response rating, Cmn Purslane (common purslane; POSTEMERGENCE, Rate 250 g/ha): 80
- Plant response rating, Cmn Purslane (common purslane; PREEMERGENCE, Rate 125 g/ha): 0
- Plant response rating, Cmn Purslane (common purslane; PREEMERGENCE, Rate 250 g/ha): 100
- Plant response rating, Bermudagrass (bermudagrass; POSTEMERGENCE, Rate 125 g/ha): 0
- Plant response rating, Bermudagrass (bermudagrass; POSTEMERGENCE, Rate 250 g/ha): 0
- Plant response rating, Bermudagrass (bermudagrass; PREEMERGENCE, Rate 125 g/ha): 0
- Plant response rating, Bermudagrass (bermudagrass; PREEMERGENCE, Rate 250 g/ha): 50
- Plant response rating, Dallisgrass (dallisgrass; POSTEMERGENCE, Rate 125 g/ha): 0
- Plant response rating, Dallisgrass (dallisgrass; POSTEMERGENCE, Rate 250 g/ha): 0
- Plant response rating, Dallisgrass (dallisgrass; PREEMERGENCE, Rate 125 g/ha): 80
- Plant response rating, Dallisgrass (dallisgrass; PREEMERGENCE, Rate 250 g/ha): 90
- Plant response rating, Cmn Ragweed (common ragweed; POSTEMERGENCE, Rate 125 g/ha): 20
- Plant response rating, Cmn Ragweed (common ragweed; POSTEMERGENCE, Rate 250 g/ha): 60
- Plant response rating, Cmn Ragweed (common ragweed; PREEMERGENCE, Rate 125 g/ha): 20
- Plant response rating, Cmn Ragweed (common ragweed; PREEMERGENCE, Rate 250 g/ha): 40
- Plant response rating, Purple Nutsedge (purple nutsedge; POSTEMERGENCE): 0
- Plant response rating, Purple Nutsedge (purple nutsedge; PREEMERGENCE): 0
- Plant response rating, Ann Bluegrass (annual bluegrass; POSTEMERGENCE, Rate 125 g/ha): 0
- Plant response rating, Ann Bluegrass (annual bluegrass; POSTEMERGENCE, Rate 250 g/ha): 0
- Plant response rating, Ann Bluegrass (annual bluegrass; PREEMERGENCE, Rate 125 g/ha): 0
- Plant response rating, Ann Bluegrass (annual bluegrass; PREEMERGENCE, Rate 250 g/ha): 0
- Plant response rating, Alfalfa Var. (alfalfa; POSTEMERGENCE, Rate 125 g/ha): 0
- Plant response rating, Alfalfa Var. (alfalfa; POSTEMERGENCE, Rate 250 g/ha): 70
- Plant response rating, Alfalfa Var. (alfalfa; PREEMERGENCE, Rate 125 g/ha): 0
- Plant response rating, Alfalfa Var. (alfalfa; PREEMERGENCE, Rate 250 g/ha): 0
- Plant response rating, S. Sandbur (sandbur; POSTEMERGENCE, Rate 125 g/ha): 0
- Plant response rating, S. Sandbur (sandbur; POSTEMERGENCE, Rate 250 g/ha): 0
- Plant response rating, S. Sandbur (sandbur; PREEMERGENCE, Rate 125 g/ha): 0
- Plant response rating, S. Sandbur (sandbur; PREEMERGENCE, Rate 250 g/ha): 0
- Plant response rating, Peanuts (peanut; POSTEMERGENCE, Rate 125 g/ha): 0
- Plant response rating, Peanuts (peanut; POSTEMERGENCE, Rate 250 g/ha): 0
- Plant response rating, Peanuts (peanut; PREEMERGENCE, Rate 125 g/ha): 0
- Plant response rating, Peanuts (peanut; PREEMERGENCE, Rate 250 g/ha): 0
- Plant response rating, Brdlf Sgnlgrass (broadleaf signalgrass; POSTEMERGENCE, Rate 125 g/ha): 0
- Plant response rating, Brdlf Sgnlgrass (broadleaf signalgrass; POSTEMERGENCE, Rate 250 g/ha): 0
- Plant response rating, Brdlf Sgnlgrass (broadleaf signalgrass; PREEMERGENCE, Rate 125 g/ha): 0
- Plant response rating, Brdlf Sgnlgrass (broadleaf signalgrass; PREEMERGENCE, Rate 250 g/ha): 0
